For one molecule, half-life results are on record in ChEMBL document CHEMBL1138669, “Dipeptidyl peptidase IV inhibitors for the treatment of diabetes” (J Med Chem, 2004).

This data set in a line: Half life was determined. The class given is ADME. The conditions noted are these: rat.

In the case of `N#Cc1ccc(NCCNCC(=O)N2CCC[C@H]2C#N)nc1`, the half-life was 50 min.
